HELM strings list units from the 5' end as sugar, base in round brackets, then linkage (d deoxyribose, r ribose, m 2'-O-methyl, p phosphodiester). Strings are as the collection lists them; they lack the last nucleoside at the 3' end of the tested compound. [moe] = 2'-O-(2-methoxyethyl) (MOE); [sp] = phosphorothioate linkage; [m5C] = 5-methylcytosine
Target: UBE3A-ATS
Assay: mouse, dose not given
Details: ASO

| Substance | 3 h FOB score [score 0-7] |
| --- | --- |
| RNA1{[moe](G)[sp].[moe](T)p.[moe](A)p.[moe]([m5C])p.[moe](A)p.d(A)[sp].d(T)[sp].d(G)[sp].d([m5C])[sp].d(A)[sp].d(T)[sp].d(G)[sp].d(T)[sp].d(G)[sp].d(G)[sp].[moe](G)p.[moe]([m5C])p.[moe]([m5C])[sp].[moe](T)}$$$$ (last 3' nucleoside missing) | 4 |
| RNA1{[moe](G)[sp].[moe](T)p.[moe](A)p.[moe]([m5C])p.[moe](A)p.d([m5C])[sp].d(T)[sp].d(A)[sp].d(T)[sp].d(T)[sp].d(G)[sp].d(T)[sp].d(T)[sp].d(T)[sp].d(T)[sp].[moe](G)p.[moe](A)p.[moe](T)[sp].[moe](A)}$$$$ (last 3' nucleoside missing) | 2.5 |
| RNA1{[moe](G)[sp].[moe](T)p.[moe](A)p.[moe]([m5C])p.[moe](T)p.d([m5C])[sp].d(A)[sp].d(T)[sp].d([m5C])[sp].d(A)[sp].d(T)[sp].d(G)[sp].d(A)[sp].d(T)[sp].d([m5C])[sp].[moe](T)p.[moe](T)p.[moe](G)[sp].[moe](G)}$$$$ (last 3' nucleoside missing) | 2 |
| RNA1{[moe](G)[sp].[moe](T)p.[moe](G)p.[moe](A)[sp].d(G)[sp].d([m5C])[sp].d(T)[sp].d(A)[sp].d(T)[sp].d([m5C])[sp].d(T)[sp].d(G)[sp].[moe](T)p.[moe](A)p.[moe]([m5C])p.[moe](A)[sp].[moe](A)}$$$$ (last 3' nucleoside missing) | 1.7 |
| RNA1{[moe](G)[sp].[moe](T)p.[moe](G)p.[moe](A)p.[moe](G)[sp].d([m5C])[sp].d(T)[sp].d(A)[sp].d(T)[sp].d([m5C])[sp].d(T)[sp].d(G)[sp].d(T)[sp].[moe](A)p.[moe]([m5C])p.[moe](A)[sp].[moe](A)}$$$$ (last 3' nucleoside missing) | 1 |
| RNA1{[moe](G)[sp].[moe](T)p.[moe](G)p.[moe](A)p.[moe](G)p.[moe]([m5C])[sp].d(T)[sp].d(A)[sp].d(T)[sp].d([m5C])[sp].d(T)[sp].d(G)[sp].d(T)[sp].d(A)[sp].[moe]([m5C])p.[moe](A)[sp].[moe](A)}$$$$ (last 3' nucleoside missing) | 4.7 |
| RNA1{[moe](G)[sp].[moe](T)p.[moe](G)p.[moe](A)p.[moe](G)p.[moe]([m5C])p.d(T)[sp].d(A)[sp].d(T)[sp].d([m5C])[sp].d(T)[sp].d(G)[sp].d(T)[sp].d(A)[sp].d([m5C])[sp].d(A)[sp].[moe](A)p.[moe](A)[sp].[moe](A)}$$$$ (last 3' nucleoside missing) | 1.3 |
| RNA1{[moe](G)[sp].[moe](T)p.[moe](G)p.[moe](A)p.[moe](G)p.d([m5C])[sp].d(T)[sp].d(A)[sp].d(T)[sp].d([m5C])[sp].d(T)[sp].d(G)[sp].d(T)[sp].d(A)[sp].d([m5C])[sp].[moe](A)p.[moe](A)p.[moe](A)[sp].[moe](A)}$$$$ (last 3' nucleoside missing) | 3.2 |
| RNA1{[moe](G)[sp].[moe](T)p.[moe](G)p.[moe](A)p.[moe](G)p.d([m5C])[sp].d(T)[sp].d(T)[sp].d(T)[sp].d(A)[sp].d([m5C])[sp].d(T)[sp].d([m5C])[sp].d(T)[sp].d(G)[sp].[moe]([m5C])p.[moe](A)p.[moe](A)[sp].[moe](T)}$$$$ (last 3' nucleoside missing) | 1 |
| RNA1{[moe](G)[sp].[moe](T)p.[moe](G)p.[moe](A)p.d(G)[sp].d([m5C])[sp].d(T)[sp].d(A)[sp].d(T)[sp].d([m5C])[sp].d(T)[sp].d(G)[sp].d(T)[sp].d(A)[sp].[moe]([m5C])p.[moe](A)p.[moe](A)p.[moe](A)[sp].[moe](A)}$$$$ (last 3' nucleoside missing) | 4 |
| RNA1{[moe](G)[sp].[moe](T)p.[moe](G)p.[moe](G)p.[moe](T)p.d(T)[sp].d(G)[sp].d([m5C])[sp].d([m5C])[sp].d(T)[sp].d(T)[sp].d(A)[sp].d(G)[sp].d(T)[sp].d(A)[sp].[moe](T)p.[moe](T)p.[moe](A)[sp].[moe]([m5C])}$$$$ (last 3' nucleoside missing) | 2.2 |
| RNA1{[moe](G)[sp].[moe](T)p.[moe](G)p.[moe](G)p.[moe](T)p.d(T)[sp].d(T)[sp].d([m5C])[sp].d([m5C])[sp].d(A)[sp].d(G)[sp].d([m5C])[sp].d(A)[sp].d(G)[sp].d(G)[sp].[moe](G)p.[moe](T)p.[moe](G)[sp].[moe](T)}$$$$ (last 3' nucleoside missing) | 5.8 |
| RNA1{[moe](G)[sp].[moe](T)p.[moe](G)p.[moe](G)p.[moe](T)p.d([m5C])[sp].d(A)[sp].d(G)[sp].d(A)[sp].d(T)[sp].d(T)[sp].d([m5C])[sp].d([m5C])[sp].d(T)[sp].d(A)[sp].[moe](A)p.[moe](A)p.[moe](T)[sp].[moe](A)}$$$$ (last 3' nucleoside missing) | 0 |
| RNA1{[moe](G)[sp].[moe](T)p.[moe](G)p.[moe](T)p.[moe](G)p.[moe](T)p.d(T)[sp].d(T)[sp].d(T)[sp].d(T)[sp].d([m5C])[sp].d([m5C])[sp].d(A)[sp].d(T)[sp].d(T)[sp].d(T)[sp].[moe](T)p.[moe](T)[sp].[moe]([m5C])}$$$$ (last 3' nucleoside missing) | 0 |
| RNA1{[moe](G)[sp].[moe](T)p.[moe](G)p.[moe](T)p.[moe](G)p.d(G)[sp].d(A)[sp].d(T)[sp].d(G)[sp].d(G)[sp].d(T)[sp].d(A)[sp].d(T)[sp].d([m5C])[sp].d([m5C])[sp].[moe](T)p.[moe](G)p.[moe](G)[sp].[moe](T)}$$$$ (last 3' nucleoside missing) | 5.5 |
| RNA1{[moe](G)[sp].[moe](T)p.[moe](G)p.[moe](T)p.[moe](G)p.d(T)[sp].d(G)[sp].d([m5C])[sp].d(A)[sp].d(A)[sp].d(T)[sp].d(A)[sp].d(G)[sp].d([m5C])[sp].d([m5C])[sp].[moe](T)p.[moe](A)p.[moe](A)[sp].[moe](A)}$$$$ (last 3' nucleoside missing) | 3.5 |
| RNA1{[moe](G)[sp].[moe](T)p.[moe](G)p.[moe](T)p.[moe](G)p.d(T)[sp].d(T)[sp].d(T)[sp].d(T)[sp].d(T)[sp].d([m5C])[sp].d([m5C])[sp].d(A)[sp].d(T)[sp].d(T)[sp].[moe](T)p.[moe](T)p.[moe](T)[sp].[moe]([m5C])}$$$$ (last 3' nucleoside missing) | 0 |
| RNA1{[moe](G)[sp].[moe](T)p.[moe](G)p.[moe](T)p.[moe](G)p.d([m5C])[sp].d([m5C])[sp].d(A)[sp].d(T)[sp].d(A)[sp].d(G)[sp].d(G)[sp].d(T)[sp].d(T)[sp].d(T)[sp].[moe]([m5C])p.[moe](A)p.[moe](G)[sp].[moe](G)}$$$$ (last 3' nucleoside missing) | 2.8 |
| RNA1{[moe](G)[sp].[moe](T)p.[moe](G)p.[moe](T)p.[moe](T)p.[moe](T)p.d(T)[sp].d(T)[sp].d([m5C])[sp].d([m5C])[sp].d(A)[sp].d(T)[sp].d(T)[sp].d(T)[sp].d(T)[sp].d(T)[sp].[moe]([m5C])p.[moe](T)[sp].[moe]([m5C])}$$$$ (last 3' nucleoside missing) | 0 |

From the OligoGym collection
